Experimental data reported in US20070015822A1, “Methods for selectively treating COX-2 mediated disorders by administering gamma-tocopherol” (priority 2005, published 2007).
Like-named read-outs stand apart in the source and are kept apart here.

Tests used:
Assay type in all cases: in vivo, dog
COX-1 = molecular target: T1, COX-1 (Canis lupus familiaris, UniProt Q8HZR1); assay: COX-1 IC50 determination in dogs; conditions: six dogs; γ-tocopherol tested as tocopherol composition comprising 66.6% gamma-tocopherol
T1 construct: from tissue
T1 sequence (Q8HZR1 28-603): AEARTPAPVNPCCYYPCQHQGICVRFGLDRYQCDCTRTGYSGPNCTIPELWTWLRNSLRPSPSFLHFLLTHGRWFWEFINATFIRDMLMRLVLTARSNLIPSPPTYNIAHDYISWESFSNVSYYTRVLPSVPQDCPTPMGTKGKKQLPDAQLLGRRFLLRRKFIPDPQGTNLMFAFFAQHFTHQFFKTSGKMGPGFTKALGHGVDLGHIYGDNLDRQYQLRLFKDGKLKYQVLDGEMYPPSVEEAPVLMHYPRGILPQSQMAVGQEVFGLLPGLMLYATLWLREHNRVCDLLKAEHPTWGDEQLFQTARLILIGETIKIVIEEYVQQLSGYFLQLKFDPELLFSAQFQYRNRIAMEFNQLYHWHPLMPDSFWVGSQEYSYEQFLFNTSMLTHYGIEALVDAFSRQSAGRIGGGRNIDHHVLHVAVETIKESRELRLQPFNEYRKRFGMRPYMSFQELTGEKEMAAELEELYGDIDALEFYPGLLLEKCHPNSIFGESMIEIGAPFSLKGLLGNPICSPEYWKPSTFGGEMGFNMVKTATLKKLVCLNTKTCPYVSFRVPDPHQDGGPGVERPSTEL

COX-2 = molecular target: T2, COX-2 (Canis lupus familiaris, UniProt Q8SPQ9); assay: COX-2 IC50 determination in dogs; parameters: from tissue; conditions: for COX-1:COX-2: ratio of COX-1 IC50 to COX-2 IC50 (selectivity)
T2 sequence (Q8SPQ9 18-604): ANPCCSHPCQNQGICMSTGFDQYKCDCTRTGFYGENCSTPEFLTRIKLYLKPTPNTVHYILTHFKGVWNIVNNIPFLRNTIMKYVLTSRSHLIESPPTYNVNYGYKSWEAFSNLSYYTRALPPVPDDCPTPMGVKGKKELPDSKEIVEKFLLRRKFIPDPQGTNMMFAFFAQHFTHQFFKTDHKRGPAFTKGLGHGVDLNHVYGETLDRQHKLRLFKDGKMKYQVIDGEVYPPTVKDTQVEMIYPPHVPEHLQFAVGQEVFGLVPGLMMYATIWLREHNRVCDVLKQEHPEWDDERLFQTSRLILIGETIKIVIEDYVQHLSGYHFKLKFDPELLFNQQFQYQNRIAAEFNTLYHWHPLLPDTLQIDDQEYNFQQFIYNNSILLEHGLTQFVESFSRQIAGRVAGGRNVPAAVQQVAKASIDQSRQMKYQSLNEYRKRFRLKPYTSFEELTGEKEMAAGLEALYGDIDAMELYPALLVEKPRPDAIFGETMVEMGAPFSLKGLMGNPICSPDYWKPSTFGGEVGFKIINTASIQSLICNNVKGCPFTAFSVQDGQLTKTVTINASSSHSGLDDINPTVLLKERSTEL

urate-induced lameness = assay: crystal urate-induced lameness model in dogs; conditions: 10 or 100 mg/kg body weight, 66.4% w/w or 90.9% w/w gamma-tocopherol
Protocol: A study was conducted to evaluate the effectiveness of the inventive formulations using the crystal urate-induced lameness model dogs. Formulations according to the invention and comprising 66.4% w/w or 90.9% w/w gamma-tocopherol and at 10 and 100 mg/kg body weight were administered to the dogs.

[1] = six dogs, γ-tocopherol tested as tocopherol composition comprising 66.6% gamma-tocopherol, read-out: COX-2 IC50

Row | IC50 (COX-2; [1]) [µM] | COX-1 IC50 (COX-1) | Structure (SMILES) | IC50 (COX-1) [µM] | IC50 (COX-2) [µM] | COX-1:COX-2 (COX-2) | degree of force upon the urate-treated joints tolerated (urate-induced lameness; FIGS. 3-4) | degree of lameness (urate-induced) (urate-induced lameness; after 8 hours, FIGS. 1-2)
1 |  |  | CC(C(=O)O)c1ccc2c(c1)[nH]c1ccc(Cl)cc12 (stereo not shown) [Carprofen] | 68.6 | 10 | 7 |  | 
2 | 0.31 |  | CC1(C)OC(=O)C(OCC2CC2)=C1c1ccc(S(C)(=O)=O)cc1 [Firocoxib] | 119 |  | 384 |  | 
3 | 27.8 | No activity | Cc1c(O)cc2c(c1C)O[C@](C)(CCC[C@H](C)CCC[C@H](C)CCCC(C)C)CC2 [γ-Tocopherol, 3,4-dihydro-2,7,8-trimethyl-2-(4,8,12-trimethyltridecyl)-2H-1-benzyopyran-6-ol] |  |  |  | increased | Improvement in the degree of lameness
